# Measured values published in ChEMBL document CHEMBL1201862, “PubChem BioAssay data set” (2004).
# Calls of active or inactive are those of the source.
# How the values were obtained:
# Kallikrein-7 = Kallikrein-7 (Homo sapiens, UniProt P49862); assay: Fluorescence Intensity-based biochemical primary high throughput dose response assay to identify activators of kallikrein-7 (K7) zymogen.
# [1] = target: T1, Oxysterols receptor LXR-beta (Homo sapiens, UniProt P55055); type: functional, cell-based;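 also: Cell-based luminescence dose-response assay of agonist activity at LXR, run as a confirmatory counterscreen to a daf-12 agonist screen; HEK293 cells with Gal4-LXR fusion and GAL4-driven luciferase reporter; agonist potency from rising luciferase signal of a Gal4-LXR reporter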
# T1 sequence (P55055 whole entry): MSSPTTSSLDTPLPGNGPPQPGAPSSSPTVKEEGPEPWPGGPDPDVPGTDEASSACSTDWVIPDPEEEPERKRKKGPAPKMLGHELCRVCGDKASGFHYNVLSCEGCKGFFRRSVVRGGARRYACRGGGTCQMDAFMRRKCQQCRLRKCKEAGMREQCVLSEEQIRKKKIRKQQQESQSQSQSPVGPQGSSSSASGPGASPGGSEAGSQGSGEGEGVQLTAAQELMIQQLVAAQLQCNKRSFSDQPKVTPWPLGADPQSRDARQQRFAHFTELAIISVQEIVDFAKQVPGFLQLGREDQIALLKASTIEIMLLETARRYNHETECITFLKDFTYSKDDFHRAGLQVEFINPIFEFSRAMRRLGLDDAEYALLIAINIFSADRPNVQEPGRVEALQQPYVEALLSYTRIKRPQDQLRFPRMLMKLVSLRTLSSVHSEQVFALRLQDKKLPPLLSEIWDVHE
# [2] = Dose-response inhibition of insulin secretion in a rat insulinoma line at 5 mM glucose (AID 1117331); type: functional, cell-based; conditions: INS-1E
# [3] = SNU-C1 cell viability reduction, dose response, CellTiter-Glo luminescence (AID 1117323); type: functional, cell-based
# [4] = Concentration-dependent survival of SW480 colon cancer line, luminescence detection with CellTiter-Glo, half-maximal inhibitory concentration (AID 1117338); type: functional
# [5] = HCT116 cell viability decrease, GSK3B pretreatment – CellTiter-Glo, IC50, dose response (AID 1117339); type: functional; conditions: HCT-116
# [6] = CellTiter-Glo luminescent dose response of DLD-1 viability loss (AID 1117352); type: functional
# [7] = cytotoxicity toward HCT116 cells – cell-based, CellTiter-Glo luminescence, IC50, dose response (AID 1117332); type: functional; conditions: HCT-116
# [8] = RKO cell viability reduction, dose response, CellTiter-Glo luminescence (AID 1117322); type: functional
# [9] = cytotoxicity toward Colo320 cells – cell-based, CellTiter-Glo luminescence, IC50, dose response (AID 1117334); type: functional; conditions: COLO 320
# [10] = cytotoxicity toward HT-29 cells – cell-based, CellTiter-Glo luminescence, IC50, dose response (AID 1117330); type: functional
# [11] = target: T2, Potassium channel subfamily K member 9 (Homo sapiens, UniProt Q9NPC2); assay: TASK3 (KCNK9) channel inhibitors, thallium flux, SAR follow-up, selectivity assay for TASK1 inhibitor project, cell-based, FluxOR thallium flux, concentration-response (AID 652211); type: functional;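 also: potency is for inhibitors of the channel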
# T2 sequence (Q9NPC2 whole entry): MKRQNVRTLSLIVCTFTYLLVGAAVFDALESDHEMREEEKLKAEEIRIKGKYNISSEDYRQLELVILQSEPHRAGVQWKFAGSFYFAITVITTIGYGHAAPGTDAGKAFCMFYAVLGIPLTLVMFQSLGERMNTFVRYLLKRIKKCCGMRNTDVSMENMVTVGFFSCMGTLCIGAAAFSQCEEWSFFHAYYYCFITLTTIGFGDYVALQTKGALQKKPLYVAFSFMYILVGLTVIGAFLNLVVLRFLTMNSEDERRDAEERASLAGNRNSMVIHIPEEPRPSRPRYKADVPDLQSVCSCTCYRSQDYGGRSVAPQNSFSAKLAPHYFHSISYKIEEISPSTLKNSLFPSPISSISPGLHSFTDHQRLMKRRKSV
# [12] = target: T2, Potassium channel subfamily K member 9; assay: KCNK9 (TASK3) current inhibition by patch clamp, SAR follow-up, selectivity assay for TASK1 (KCNK3) inhibitor project, cell-based, automated electrophysiology (AID 652210); type: functional
# [13] = target: Potassium channel subfamily K member 3 (Homo sapiens, UniProt O14649); assay: TASK1 (KCNK3) potassium channel inhibitors, SAR follow-up, CHO cells, FluxOR thallium flux (AID 652212); type: functional
# Chain of Potassium channel subfamily K member 3 (Homo sapiens, UniProt O14649) (O14649 whole entry, the tested form may be a part): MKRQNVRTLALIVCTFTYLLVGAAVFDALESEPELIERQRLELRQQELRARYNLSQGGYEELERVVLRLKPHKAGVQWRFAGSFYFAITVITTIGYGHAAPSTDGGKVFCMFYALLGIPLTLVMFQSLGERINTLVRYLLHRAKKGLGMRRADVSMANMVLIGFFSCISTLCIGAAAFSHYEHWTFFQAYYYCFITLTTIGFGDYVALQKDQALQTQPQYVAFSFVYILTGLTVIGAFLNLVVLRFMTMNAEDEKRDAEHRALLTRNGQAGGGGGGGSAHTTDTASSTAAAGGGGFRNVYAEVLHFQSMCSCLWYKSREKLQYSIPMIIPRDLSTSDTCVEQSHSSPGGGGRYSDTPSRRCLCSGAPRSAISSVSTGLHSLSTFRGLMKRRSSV
# [14] = target: Potassium channel subfamily K member 3 (Rattus norvegicus, UniProt O54912); assay: SAR analysis for the identification of selective inhibitors of the two-pore domain potassium channel TASK1(KCNK3):Automated Electrophysiology.; type: functional
# Chain of Potassium channel subfamily K member 3 (Rattus norvegicus, UniProt O54912) (O54912 whole entry, the tested form may be a part): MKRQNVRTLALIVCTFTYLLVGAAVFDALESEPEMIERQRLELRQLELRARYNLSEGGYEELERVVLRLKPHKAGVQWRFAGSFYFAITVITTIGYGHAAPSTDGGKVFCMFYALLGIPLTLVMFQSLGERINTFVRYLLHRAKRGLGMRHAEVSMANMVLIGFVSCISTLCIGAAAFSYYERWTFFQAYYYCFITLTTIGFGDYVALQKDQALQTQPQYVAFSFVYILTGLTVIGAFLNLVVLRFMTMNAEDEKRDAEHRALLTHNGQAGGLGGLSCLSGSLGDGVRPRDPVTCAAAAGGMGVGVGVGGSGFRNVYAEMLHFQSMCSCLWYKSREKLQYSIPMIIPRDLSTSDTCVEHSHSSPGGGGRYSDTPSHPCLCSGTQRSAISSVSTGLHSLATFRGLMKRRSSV
# [15] = HeLa 4N DNA content increase, dose response, cell-based, IC50 (AID 1117351); type: functional
# [16] = HeLa 2N DNA content increase, dose response, cell-based, IC50 (AID 1117349); type: functional
# Chain of Kallikrein-7 (P49862 whole entry, the tested form may be a part): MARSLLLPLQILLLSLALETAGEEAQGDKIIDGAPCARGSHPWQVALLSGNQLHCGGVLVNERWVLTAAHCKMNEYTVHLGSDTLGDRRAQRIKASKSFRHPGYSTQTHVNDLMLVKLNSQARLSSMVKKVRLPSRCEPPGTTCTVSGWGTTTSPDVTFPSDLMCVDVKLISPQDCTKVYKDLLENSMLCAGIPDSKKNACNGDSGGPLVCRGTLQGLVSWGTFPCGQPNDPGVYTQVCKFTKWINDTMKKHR
Structure (SMILES),IC50 [3],IC50 [4],IC50 [6],IC50 [7],IC50 [8],IC50 [9],IC50 [10],further results
COc1ccc(C2Nc3ccccc3C(=O)N2NC(C)=O)c(OC)c1 (stereo not given),–,–,–,–,–,–,–,EC50 (Kallikrein-7): 9.55 µM (active)
Cc1ccc(C2=Nc3ccccc3N=C(C(Cl)Cl)C2)cc1,–,–,–,–,–,–,–,EC50 (cells): > 67.5 µM (inactive); EC50 [1]: > 67.5 µM (inactive)
CCCCN(CCCC)C(C(N)=O)c1ccc(OC)cc1 (stereo not given) [AMBUCETAMIDE],–,–,–,–,–,–,–,IC50 [2]: > 33.3 µM (inactive)
CCOC(=O)c1ccccc1C(=O)OCC [DIETHYL PHTHALATE],> 20 µM (inactive),> 20 µM (inactive),> 20 µM (inactive),> 20 µM (inactive),> 20 µM (inactive),> 20 µM (inactive),> 20 µM (inactive),IC50 [5]: > 20 µM (inactive)
CCOc1ccccc1C(=O)Nc1cccc(NC(=O)C2CCCC2)c1,–,–,–,–,–,–,–,IC50 [11]: 1.11 µM (active); IC50 [12]: 490 nM (active); IC50 [13]: 108 nM (active); IC50 [14]: 30 nM (active)
NCCCC[C@H](N[C@@H](CCc1ccccc1)C(=O)O)C(=O)N1CCC[C@H]1C(=O)O [LISINOPRIL],2.53 µM (active),4.03 µM (active),2.24 µM (active),3.39 µM (active),8.88 µM (inactive),> 20 µM (inactive),> 6.67 µM (inactive),IC50 [15]: > 10 µM (inactive); IC50 [16]: > 10 µM (inactive)
